According to patent US20210290514A1, “An Antimicrobial Combination Composition Comprising Glycerol Derivatives and Bicyclic Compounds” (CLARIANT INTERNATIONAL LIMITED, priority 2018, published 2021):

What was measured:
Assay in all cases: in vitro growth inhibition of a microbial strain by compositions formulated to pH 5.5
Format in all cases: cell-based
Pseudomonas aeruginosa = system: Pseudomonas aeruginosa
Procedure: (§1) Several antimicrobial combinations compositions were formulated to pH of 5.5. These compositions were tested for their ability to inhibit in vitro the growth of a microbial strain. “Green” indicates a substantial inhibition, “Yellow” indicates an intermediate inhibition, and “Red” indicates little to no inhibition.

Echerichia coli = system: Echerichia coli
Procedure: as §1

Candida albicans = system: Candida albicans
Procedure: as §1

Staphylococcus aureus = system: Staphylococcus aureus
Procedure: as §1

[1] = system: Aspergillus brasilliensis
Procedure: as §1

| SMILES | antimicrobial activity, Pseudomonas aeruginosa (Pseudomonas aeruginosa; 0.5%) | antimicrobial activity, Pseudomonas aeruginosa (Pseudomonas aeruginosa; 0.8%) | antimicrobial activity, Pseudomonas aeruginosa (Pseudomonas aeruginosa; 1.0%) | antimicrobial activity, Pseudomonas aeruginosa (Pseudomonas aeruginosa; 1.5%) | antimicrobial activity, Echerichia coli (Echerichia coli; 0.5%) | antimicrobial activity, Echerichia coli (Echerichia coli; 0.8%) | antimicrobial activity, Echerichia coli (Echerichia coli; 1.0%) | antimicrobial activity, Echerichia coli (Echerichia coli; 1.5%) | antimicrobial activity, Candida albicans (Candida albicans; 0.5%) | antimicrobial activity, Candida albicans (Candida albicans; 0.8%) | antimicrobial activity, Candida albicans (Candida albicans; 1.0%) | antimicrobial activity, Candida albicans (Candida albicans; 1.5%) | antimicrobial activity, Staphylococcus aureus (Staphylococcus aureus; 0.5%) | antimicrobial activity, Staphylococcus aureus (Staphylococcus aureus; 0.8%) | antimicrobial activity, Staphylococcus aureus (Staphylococcus aureus; 1.0%) | antimicrobial activity, Staphylococcus aureus (Staphylococcus aureus; 1.5%) | antimicrobial activity, Aspergillus brasilliensis ([1]; 0.5%) | antimicrobial activity, Aspergillus brasilliensis ([1]; 0.8%) | antimicrobial activity, Aspergillus brasilliensis ([1]; 1.0%) | antimicrobial activity, Aspergillus brasilliensis ([1]; 1.5%) |
| --- | --- | --- | --- | --- | --- | --- | --- | --- | --- | --- | --- | --- | --- | --- | --- | --- | --- | --- | --- | --- |
| CCCCCCCCOCC(O)CO (stereo not shown) [Octylglycerin, 3-[(n-octyl)oxy]-1,2-propanediol] | Green | Green | Green | Green | Green | Green | Green | Green | Green | Green | Green | Green | Green | Green | Green | Green | Yellow | Green | Yellow | Yellow |
| CCCCC(CC)COCC(O)CO (stereo not shown) [Velsan ethylhexylglycerin, 3-[(2-ethylhexyl)oxy]-1,2-propanediol] | Green | Green | Green | Green | Green | Green | Green | Green | Green | Green | Green | Green | Green | Green | Green | Green | Red | Red | Red | Red |
